Measurements published in BindingDB's records for doi:10.1021/jm00078a018 (Merck Research Laboratories, 1994).
Structures can show the parent of a compound that is named as a salt.

Experiment: Inhibition of binding of [125I]-CCK-8 to the cholecystokinin type B receptor

## COC(=O)Cc1cccc(NC(=O)NC2N=C(c3ccccc3)c3ccccc3N(C)C2=O)c1 (stereo not given) [{3-[3-(1-Methyl-2-oxo-5-phenyl-2,3-dihydro-1H-benzo[e][1,4]diazepin-3-yl)-ureido]-phenyl}-acetic acid methyl ester]
  IC50: 0.033 µM

## Cc1ccc(NC(=O)NC2N=C(c3ccccc3)c3ccccc3N(C)C2=O)cc1C (stereo not given) [1-(3,4-Dimethyl-phenyl)-3-(1-methyl-2-oxo-5-phenyl-2,3-dihydro-1H-benzo[e][1,4]diazepin-3-yl)-urea]
  IC50: 0.022 µM

## CN1C(=O)C(NC(=O)Nc2ccccn2)N=C(c2ccccc2)c2ccccc21 (stereo not given) [1-(1-Methyl-2-oxo-5-phenyl-2,3-dihydro-1H-benzo[e][1,4]diazepin-3-yl)-3-pyridin-2-yl-urea]
  IC50: 0.337 µM

## O=C(Nc1ccc(Cl)cc1)NC1N=C(c2ccccc2)c2ccccc2N(C[C@@H](O)CN2CCCC2)C1=O (stereo not given in full) [1-(4-Chloro-phenyl)-3-[1-(2-hydroxy-3-pyrrolidin-1-yl-propyl)-2-oxo-5-phenyl-2,3-dihydro-1H-benzo[e][1,4]diazepin-3-yl]-urea]
  IC50: 0.3 µM

## CN1C(=O)C(NC(=O)Nc2ccc(C(F)(F)F)cc2)N=C(c2ccccc2)c2ccccc21 (stereo not given) [1-(1-Methyl-2-oxo-5-phenyl-2,3-dihydro-1H-benzo[e][1,4]diazepin-3-yl)-3-(4-trifluoromethyl-phenyl)-urea]
  IC50: 0.0057 µM

## O=C(Nc1ccc(Cl)cc1)NC1N=C(c2ccccc2)c2ccccc2N(Cc2nnn[nH]2)C1=O (stereo not given) [1-(4-Chloro-phenyl)-3-[2-oxo-5-phenyl-1-(1H-tetrazol-5-ylmethyl)-2,3-dihydro-1H-benzo[e][1,4]diazepin-3-yl]-urea]
  IC50: 0.49 µM

## CN1C(=O)C(NC(=O)Nc2ccccc2[N+](=O)[O-])N=C(c2ccccc2)c2ccccc21 (stereo not given) [1-(1-Methyl-2-oxo-5-phenyl-2,3-dihydro-1H-benzo[e][1,4]diazepin-3-yl)-3-(2-nitro-phenyl)-urea]
  IC50: 1.2 µM

## CN1C(=O)C(NC(=O)Nc2cccc3ccccc23)N=C(c2ccccc2)c2ccccc21 (stereo not given) [1-(1-Methyl-2-oxo-5-phenyl-2,3-dihydro-1H-benzo[e][1,4]diazepin-3-yl)-3-naphthalen-1-yl-urea]
  IC50: 0.079 µM

## CN1C(=O)C(NC(=O)Nc2ccc(Cl)nc2)N=C(c2ccccc2)c2ccccc21 (stereo not given) [1-(6-Chloro-pyridin-3-yl)-3-(1-methyl-2-oxo-5-phenyl-2,3-dihydro-1H-benzo[e][1,4]diazepin-3-yl)-urea]
  IC50: 0.046 µM

## Cc1cc(C)cc(NC(=O)NC2N=C(c3ccccc3)c3ccccc3N(C)C2=O)c1 (stereo not given) [1-(3,5-Dimethyl-phenyl)-3-(1-methyl-2-oxo-5-phenyl-2,3-dihydro-1H-benzo[e][1,4]diazepin-3-yl)-urea]
  IC50: 0.267 µM

## CN1C(=O)[C@H](NC(=O)NCc2cccc(O)c2)N=C(c2ccccc2)c2ccccc21
  IC50: 0.019 µM

## CN1C(=O)C(NC(=O)Nc2ccc(Cl)cc2Cl)N=C(c2ccccc2)c2ccccc21 (stereo not given) [1-(2,4-Dichloro-phenyl)-3-(1-methyl-2-oxo-5-phenyl-2,3-dihydro-1H-benzo[e][1,4]diazepin-3-yl)-urea]
  IC50: 0.22 µM

## Cc1cccc(NC(=O)NC2N=C(c3ccccc3)c3ccccc3N(CCOC(=O)CCC(=O)O)C2=O)c1 (stereo not given) [Succinic acid mono-{2-[2-oxo-5-phenyl-3-(3-m-tolyl-ureido)-2,3-dihydro-benzo[e][1,4]diazepin-1-yl]-ethyl} ester]
  IC50: 0.0072 µM

## CCOC(=O)CCN1C(=O)C(NC(=O)Nc2cccc(OC)c2)N=C(c2ccccc2)c2ccccc21 (stereo not given) [3-{3-[3-(3-Methoxy-phenyl)-ureido]-2-oxo-5-phenyl-2,3-dihydro-benzo[e][1,4]diazepin-1-yl}-propionic acid ethyl ester]
  IC50: 0.001 µM

## CN1C(=O)[C@H](NC(=O)Nc2ccccc2Cl)N=C(c2ccccc2)c2ccccc21
  IC50: 0.061 µM

## COc1ccccc1NC(=O)NC1N=C(c2ccccc2)c2ccccc2N(C)C1=O (stereo not given) [1-(2-Methoxy-phenyl)-3-(1-methyl-2-oxo-5-phenyl-2,3-dihydro-1H-benzo[e][1,4]diazepin-3-yl)-urea]
  IC50: 1.2 µM

## CN1C(=O)C(NC(=O)Nc2ccc(Cl)c(Cl)c2)N=C(c2ccccc2)c2ccccc21 (stereo not given) [1-(3,4-Dichloro-phenyl)-3-(1-methyl-2-oxo-5-phenyl-2,3-dihydro-1H-benzo[e][1,4]diazepin-3-yl)-urea]
  IC50: 0.067 µM

## CCOC(=O)CN1C(=O)C(NC(=O)N[C@@H](C)c2ccccc2)N=C(c2ccccc2)c2ccccc21 (stereo not given in full) [{2-Oxo-5-phenyl-3-[3-(1-phenyl-ethyl)-ureido]-2,3-dihydro-benzo[e][1,4]diazepin-1-yl}-acetic acid ethyl ester]
  IC50: > 0.1 µM

## COc1cc(NC(=O)NC2N=C(c3ccccc3)c3ccccc3N(C)C2=O)cc(OC)c1 (stereo not given) [1-(3,5-Dimethoxy-phenyl)-3-(1-methyl-2-oxo-5-phenyl-2,3-dihydro-1H-benzo[e][1,4]diazepin-3-yl)-urea]
  IC50: 2.3 µM

## CN1CCN(C(=O)CN2C(=O)C(NC(=O)Nc3ccc(Cl)cc3)N=C(c3ccccc3)c3ccccc32)CC1 (stereo not given) [1-(4-Chloro-phenyl)-3-{1-[2-(4-methyl-piperazin-1-yl)-2-oxo-ethyl]-2-oxo-5-phenyl-2,3-dihydro-1H-benzo[e][1,4]diazepin-3-yl}-urea]
  IC50: 0.0008 µM

## Cc1cccc(NC(=O)N[C@@H]2N=C(c3ccccc3)c3ccccc3NC2=O)c1
  IC50: 0.04 µM

## COC(=O)[C@H]1CCCN1OC(=O)CN1C(=O)C(NC(=O)Nc2cccc(OC)c2)N=C(c2ccccc2)c2ccccc21 (stereo not given in full) [1-(2-{3-[3-(3-Methoxy-phenyl)-ureido]-2-oxo-5-phenyl-2,3-dihydro-benzo[e][1,4]diazepin-1-yl}-acetoxy)-pyrrolidine-2-carboxylic acid methyl ester]
  IC50: 0.0097 µM

## CCN(CC)C(=O)CN1C(=O)C(NC(=O)Nc2cccc(OC)c2)N=C(c2ccccc2)c2ccccc21 (stereo not given) [N,N-Diethyl-2-{3-[3-(3-methoxy-phenyl)-ureido]-2-oxo-5-phenyl-2,3-dihydro-benzo[e][1,4]diazepin-1-yl}-acetamide]
  IC50: 0.00022 µM

## CCOC(=O)CCN1C(=O)C(NC(=O)Nc2ccc(Cl)cc2)N=C(c2ccccc2)c2ccccc21 (stereo not given) [3-{3-[3-(4-Chloro-phenyl)-ureido]-2-oxo-5-phenyl-2,3-dihydro-benzo[e][1,4]diazepin-1-yl}-propionic acid ethyl ester]
  IC50: 0.0059 µM

## COC(=O)c1cccc(NC(=O)N[C@@H]2N=C(c3ccccc3)c3ccccc3N(C)C2=O)c1 [3-[3-((R)-1-Methyl-2-oxo-5-phenyl-2,3-dihydro-1H-benzo[e][1,4]diazepin-3-yl)-ureido]-benzoic acid methyl ester]
  IC50: 0.008 µM

## CN1C(=O)C(NC(=O)NCc2cccc(C(C)(C)O)c2)N=C(c2ccccc2)c2ccccc21 (stereo not given) [1-[3-(1-Hydroxy-1-methyl-ethyl)-benzyl]-3-(1-methyl-2-oxo-5-phenyl-2,3-dihydro-1H-benzo[e][1,4]diazepin-3-yl)-urea]
  IC50: 0.0059 µM

## Cc1cccc(NC(=O)NC2N=C(c3ccccc3)c3ccccc3N(CCN(C)C)C2=O)c1 (stereo not given) [1-[1-(2-Dimethylamino-ethyl)-2-oxo-5-phenyl-2,3-dihydro-1H-benzo[e][1,4]diazepin-3-yl]-3-m-tolyl-urea]
  IC50: 0.026 µM

## Cc1cccc(NC(=O)NC2N=C(c3ccccc3)c3ccccc3N(CC(=O)N3CC[N+](C)(C)CC3)C2=O)c1 (stereo not given) [1,1-Dimethyl-4-{2-[2-oxo-5-phenyl-3-(3-m-tolyl-ureido)-2,3-dihydro-benzo[e][1,4]diazepin-1-yl]-acetyl}-piperazin-1-ium; iodide]
  IC50: 0.058 µM

## CN1C(=O)C(NC(=O)Nc2ccc3ncccc3c2)N=C(c2ccccc2)c2ccccc21 (stereo not given) [1-(1-Methyl-2-oxo-5-phenyl-2,3-dihydro-1H-benzo[e][1,4]diazepin-3-yl)-3-quinolin-6-yl-urea]
  IC50: 0.052 µM

## COc1cccc(NC(=O)NC2N=C(c3ccccc3)c3ccccc3N(CC[N+](C)(C)C)C2=O)c1 (stereo not given) [(2-{3-[3-(3-Methoxy-phenyl)-ureido]-2-oxo-5-phenyl-2,3-dihydro-benzo[e][1,4]diazepin-1-yl}-ethyl)-trimethyl-ammonium; iodide]
  IC50: 1.1 µM

## CN1C(=O)C(NC(=O)Nc2ccc(N)nc2)N=C(c2ccccc2)c2ccccc21 (stereo not given) [1-(6-Amino-pyridin-3-yl)-3-(1-methyl-2-oxo-5-phenyl-2,3-dihydro-1H-benzo[e][1,4]diazepin-3-yl)-urea]
  IC50: 0.5 µM

## CN1C(=O)C(NC(N)=O)N=C(c2ccccc2)c2ccccc21 (stereo not given) [(1-Methyl-2-oxo-5-phenyl-2,3-dihydro-1H-benzo[e][1,4]diazepin-3-yl)-urea]
  IC50: > 100 µM

## CN1C(=O)C(NC(=O)Nc2cccnc2)N=C(c2ccccc2)c2ccccc21 (stereo not given) [1-(1-Methyl-2-oxo-5-phenyl-2,3-dihydro-1H-benzo[e][1,4]diazepin-3-yl)-3-pyridin-3-yl-urea]
  IC50: 0.31 µM

## COc1ccc(NC(=O)NC2N=C(c3ccccc3)c3ccccc3N(C)C2=O)cc1 (stereo not given) [1-(4-Methoxy-phenyl)-3-(1-methyl-2-oxo-5-phenyl-2,3-dihydro-1H-benzo[e][1,4]diazepin-3-yl)-urea]
  IC50: 0.026 µM

## O=C(Nc1ccc(Cl)cc1)N[C@H]1N=C(c2ccccc2)c2ccccc2N(CC(=O)N2CCCC2)C1=O
  IC50: 0.013 µM

## Cc1cccc(NC(=O)NC2N=C(c3ccccc3)c3ccccc3N(CC(=O)N3CCN(C)CC3)C2=O)c1 (stereo not given) [1-{1-[2-(4-Methyl-piperazin-1-yl)-2-oxo-ethyl]-2-oxo-5-phenyl-2,3-dihydro-1H-benzo[e][1,4]diazepin-3-yl}-3-m-tolyl-urea; hydrochloride]
  IC50: 0.0035 µM

## CN1C(=O)C(NC(=O)Nc2cccc(Br)c2)N=C(c2ccccc2)c2ccccc21 (stereo not given) [1-(3-Bromo-phenyl)-3-(1-methyl-2-oxo-5-phenyl-2,3-dihydro-1H-benzo[e][1,4]diazepin-3-yl)-urea]
  IC50: 0.005 µM

## COc1cccc(NC(=O)NC2N=C(c3ccccc3)c3ccccc3N(CCN(C)C)C2=O)c1 (stereo not given) [1-[1-(2-Dimethylamino-ethyl)-2-oxo-5-phenyl-2,3-dihydro-1H-benzo[e][1,4]diazepin-3-yl]-3-(3-methoxy-phenyl)-urea]
  IC50: 0.192 µM

## CN1C(=O)C(NC(=O)Nc2cccc(CC(=O)O)c2)N=C(c2ccccc2)c2ccccc21 (stereo not given) [{3-[3-(1-Methyl-2-oxo-5-phenyl-2,3-dihydro-1H-benzo[e][1,4]diazepin-3-yl)-ureido]-phenyl}-acetic acid]
  IC50: 0.0049 µM

## CN1C(=O)[C@H](NC(=O)Nc2ccc(Cl)cc2)N=C(c2ccccc2)c2ccccc21 [1-(4-Chloro-phenyl)-3-((R)-1-methyl-2-oxo-5-phenyl-2,3-dihydro-1H-benzo[e][1,4]diazepin-3-yl)-urea]
  IC50: 0.02 µM
